Source: US8563545B2, “Compound useful for the treatment of degenerative and inflammatory diseases” (Galapagos NV, priority 2009, dated 2013)

Assays:
[1] = test system: TNF release in vivo; experiment: Septic shock model (LPS-induced TNF release); set-up: species or system mouse; settings: BALB/cJ mice, 30 mg/kg, po, LPS 15 μg/kg ip
Experimental: Injection of lipopolysaccharide (LPS) induces a rapid release of soluble tumour necrosis factor (TNF-alpha) into the periphery. This model was used to analyse prospective blockers of TNF release in vivo. Six BALB/cJ female mice (20 g) per group were treated at the intended dosing once, po. Thirty minutes later, LPS (15 μg/kg; E. Coli serotype 0111:B4) was injected ip. Ninety minutes later, mice were euthanized and blood was collected. Circulating TNF alpha levels were determined using commercially available ELISA kits. Dexamethasone ([…]) was used as a reference anti-inflammatory compound. Selected compounds were tested at one or multiple doses, e.g. 3 and/or 10 and/or 30 mg/kg, po.

[2] = Plasma protein binding (equilibrium dialysis), human; format: in vitro ADME; settings: 10 μM, 4 hrs at 37° C.
Experimental: A 10 mM stock solution of the compound in DMSO was diluted with a factor 5 in DMSO. This solution was further diluted in freshly thawed human, rat, mouse or dog plasma (BioReclamation INC) with a final concentration of 10 μM and final DMSO concentration of 0.5% (5.5 μL in 1094.5 μL plasma in a PP-Masterblock 96 well (Greiner, Cat no. 780285))
A Pierce Red Device plate with inserts (ThermoScientific, Cat no. 89809) was prepared and filled with 750 μL PBS in the buffer chamber and 500 μL of the spiked plasma in the plasma chamber. The plate was incubated for 4 hrs at 37° C. while shaking at 230 rpm. After incubation, 120 μL of both chambers was transferred to 360 μL acetonitrile in a 96-well round bottom, PP deep-well plates (Nunc, Cat no. 278743) and sealed with an aluminum foil lid. The samples were mixed and placed on ice for 30 min. This plate was then centrifuged 30 min at 1200 rcf at 4° C. and the supernatant was transferred to a 96 v-bottom PP plate (Greiner, 651201) for analysis on LCMS.
The plate is sealed with sealing mats (MA96RD-04S) of www.kinesis.co.uk and samples are measured at room temperature on LCMS (ZQ 1525 from Waters) under optimized conditions using Quanoptimize to determine the appropriate mass of the molecule.
The samples were analyzed on LCMS with a flow rate of […]. Solvent A was 15 mM ammonia and solvent B was acetonitrile. The sample was run under positive ion spray on an XBridge C18 3.5 μM (2.1×30 mm) column, from Waters. The solvent gradient has a total run time of 2 minutes and ranges from 5% B to 95% B.
Peak area from the compound in the buffer chamber and the plasma chamber are considered to be 100% compound.

[3] = Microsomal stability, human; format: in vitro ADME; settings: human liver microsomes, 3 μM compound
Experimental: A 10 mM stock solution of compound in DMSO was diluted 1000 fold in a 182 mM phosphate buffer pH7.4 in a 96 deep well plate (Greiner, Cat no. 780285) and pre-incubated at 37° C. 40 μL of deionised water was added to a well of a polypropylene Matrix 2D barcode labelled storage tube (Thermo Scientific) and pre-incubated at 37° C.
A Glucose-6-phophate-dehydrogenase (G6PDH) working stock solution was prepared in 182 mM phosphate buffer pH7.4 and placed on ice before use. A co-factor containing MgCl2, glucose-6-phosphate and NADP+ was prepared in deionised water and placed on ice before use.
A final working solution containing liver microsomes (Xenotech) of a species of interest (human, mouse, rat, dog), previously described G6PDH and co-factors was prepared and this mix was incubated for no longer than 20 minutes at room temperature.
30 μL of the pre-heated compound dilution was added to 40 μL of pre-heated water in the Matrix tubes and 30 μL, of the microsomal mix was added. Final reaction concentrations were 3 μM compound, 1 mg microsomes, 0.4 U/mL GDPDH, 3.3 mM MgCl2, 3.3 mM glucose-6-phosphate and 1.3 mM NADP+.
To measure percentage remaining of compound at time zero MeOH or ACN was added (1:1) to the well before adding the microsomal mix. The plates were sealed with Matrix Sepra Seals™ (Matrix, Cat. No. 4464) and shaken for a few seconds ensure complete mixing of all components.
The samples which were not stopped are incubated at 37° C., 300 rpm and after 1 hr of incubation the reaction was stopped with MeOH or ACN (1:1).
After stopping the reaction the samples were mixed and placed on ice for 30 min to precipitate the proteins. The plates were then centrifuged 30 min at 1200 rcf at 4° C. and the supernatant was transferred to a 96 v-bottom PP plate (Greiner, 651201) for analysis on LCMS.
These plates were sealed with sealing mats (MA96RD-04S) of www.kinesis.co.uk and samples were measured at room temperature on LCMS (ZQ 1525 from Waters) under optimized conditions using Quanoptimize to determine the appropriate mass of the parent molecule.
The samples were analyzed on LCMS with a flow rate of 1 mL/min. Solvent A was 15 mM ammonia and solvent B was methanol or acetonitrile, depending on the stop solution used. The samples were run under positive ion spray on an XBridge C18 […] (2.1×30 mm) column, from Waters.
Peak area from the parent compound at time 0 was considered to be 100% remaining. The percentage remaining after 1 hr incubation was calculated from time 0 and was calculated as the percentage remaining. The solubility of the compound in the final test concentration in buffer is inspected by microscope and results are reported.
The data on microsomal stability are expressed as a percentage of the total amount of compound remaining after 60 min.

[4] = Caco2 permeability; format: in vitro ADME; settings: human; for Papp at 1 h, 10 µM: pH 7.4, Caco-2, 10 μM; for efflux ratio at 1 h, 10 µM: Caco-2, pH 7.4, Papp B>A/Papp A>B
Experimental: Bi-directional Caco-2 assays were performed as described below. Caco-2 cells were obtained from European Collection of Cell Cultures (ECACC, cat 86010202) and used after a 21 day cell culture in 24-well Transwell plates (Fisher TKT-545-020B).
2×10^5 cells/well were seeded in plating medium consisting of DMEM+GlutaMAXI+1% NEAA+10% FBS (FetalClone II)+1% Pen/Strep. The medium was changed every 2-3 days.
Test and reference compounds (propranolol and rhodamine123 or vinblastine, all purchased from Sigma) were prepared in Hanks' Balanced Salt Solution containing 25 mM HEPES (pH7.4) and added to either the apical (125 μL) or basolateral (600 μL) chambers of the Transwell plate assembly at a concentration of 10 μM with a final DMSO concentration of 0.25%.
50 μM Lucifer Yellow (Sigma) was added to the donor buffer in all wells to assess integrity of the cell layers by monitoring Lucifer Yellow permeation. As Lucifer Yellow (LY) cannot freely permeate lipophilic barriers, a high degree of LY transport indicates poor integrity of the cell layer.
After a 1 hr incubation at 37° C. while shaking at an orbital shaker at 150 rpm, 70 μL aliquots were taken from both apical (A) and basal (B) chambers and added to 100 μL1 50:50 acetonitrile:water solution containing analytical internal standard (0.5 μM carbamazepine) in a 96 well plate.
Concentrations of compound in the samples were measured by high performance liquid-chromatography/mass spectroscopy (LC-MS/MS).
The Efflux ratios, as an indication of active efflux from the apical cell surface, were calculated using the ratio of Papp B>A/Papp A>B.

Structure (SMILES) | activity in septic shock model (circulating TNF alpha) [1] | percentage bound to plasma, Human [2] [%] | percentage of compound remaining after 60 min, Human [3] [%] | Papp at 1 h, 10 µM [4] [×10⁻⁶ cm/s] | efflux ratio at 1 h, 10 µM [4]
O=C(Nc1nc2cccc(-c3ccc(CN4CCOCC4)cc3)n2n1)C1CC1 [Compound 2, N-(5-(4-(morpholinomethyl)phenyl)-[1,2,4]triazolo[1,5-a]pyridin-2-yl)cyclopropanecarboxamide] | active | 70.5 | 73 | 25 | –
O=C(Nc1nc2cccc(-c3ccc(CN4CCS(=O)(=O)CC4)cc3)n2n1)C1CC1 [Compound 1, Cyclopropanecarboxylic acid {5-[4-(1,1-dioxo-1-thiomorpholin-4-ylmethyl)-phenyl]-[1,2,4]triazolo [1,5-a]pyridin-2-yl}-amide] | active | 76.4 | 87.2 | 3.33 | –
O=C(Nc1nc2cccc(-c3ccc(C(=O)N4CCS(=O)(=O)CC4)cc3)n2n1)C1CC1 [Compound 10, Cyclopropanecarboxylic acid {5-[4-(1,1-dioxo-1-thiomorpholine-4-carbonyl)-phenyl]-[1,2,4]triazolo [1,5-a]pyridin-2-yl}-amide] | active | – | 102 | 0.05 | 97.6
O=C(Nc1nc2cccc(-c3ccc(CN4CCC(F)(F)CC4)cc3)n2n1)C1CC1 [Compound 11, Cyclopropanecarboxylic acid {5-[4-(4,4-difluoro-piperidin-1-ylmethyl)-phenyl]-[1,2,4]triazolo [1,5-a]pyridin-2-yl}-amide] | – | 91.25 | 51 | 36.5 | 0.9
